From article PMC2720952 (BMC Evolutionary Biology, 2009)

Assays:
C. pneumoniae AaxC = C. pneumoniae AaxC (Chlamydia pneumoniae, UniProt Q9Z6M8); conditions: 1 mM L-arginine, E medium pH 5, 37 °C, 20 min; AaxB co-expressed; labelled compound
[1] = biological target: AaxC (CT374) from C. trachomatis D/UW-3 (Chlamydia trachomatis, UniProt O84379); conditions: 1 mM L-arginine, E medium pH 5, 37 °C, 20 min; AaxB co-expressed; labelled compound
Sequence of AaxC (CT374) from C. trachomatis D/UW-3 (O84379 whole entry): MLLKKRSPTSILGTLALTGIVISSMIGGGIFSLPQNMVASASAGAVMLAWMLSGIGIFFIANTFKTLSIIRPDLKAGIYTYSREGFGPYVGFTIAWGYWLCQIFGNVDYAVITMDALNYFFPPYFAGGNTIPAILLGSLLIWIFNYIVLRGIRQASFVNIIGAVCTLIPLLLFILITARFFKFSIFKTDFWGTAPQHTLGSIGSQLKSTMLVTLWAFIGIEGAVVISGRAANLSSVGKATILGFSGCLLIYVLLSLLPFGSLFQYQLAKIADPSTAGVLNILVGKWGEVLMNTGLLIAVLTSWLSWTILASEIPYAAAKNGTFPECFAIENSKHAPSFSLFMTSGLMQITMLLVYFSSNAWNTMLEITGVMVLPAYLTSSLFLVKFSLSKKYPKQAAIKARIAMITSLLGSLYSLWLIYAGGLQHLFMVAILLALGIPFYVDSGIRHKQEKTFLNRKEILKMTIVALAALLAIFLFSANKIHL

Sequence of C. pneumoniae AaxC (Q9Z6M8 whole entry): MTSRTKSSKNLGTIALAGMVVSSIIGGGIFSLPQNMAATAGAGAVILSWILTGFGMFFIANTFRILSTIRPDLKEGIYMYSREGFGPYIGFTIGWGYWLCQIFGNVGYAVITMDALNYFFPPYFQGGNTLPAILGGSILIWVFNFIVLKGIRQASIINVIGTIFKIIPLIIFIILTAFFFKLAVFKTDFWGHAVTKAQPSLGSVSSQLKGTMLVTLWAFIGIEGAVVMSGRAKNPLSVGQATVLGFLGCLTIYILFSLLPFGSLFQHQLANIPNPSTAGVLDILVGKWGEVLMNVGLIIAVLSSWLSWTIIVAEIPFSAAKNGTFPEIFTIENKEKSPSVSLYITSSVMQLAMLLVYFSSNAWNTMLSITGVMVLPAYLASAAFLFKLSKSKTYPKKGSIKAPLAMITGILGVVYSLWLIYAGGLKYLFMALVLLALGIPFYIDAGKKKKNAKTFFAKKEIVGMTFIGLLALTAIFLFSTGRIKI

N=C(N)NCCC[C@H](N)C(=O)O [L-arginine]
uptake of L-[2,3,4,5-3H]arginine by E. coli DEG0147 cells, filtration (C. pneumoniae AaxC): A significant difference in samples expressing C. pneumoniae aaxBC (relative to pBAD/HisA) | uptake of L-[2,3,4,5-3H]arginine by E. coli DEG0147 cells, filtration [1]: cells expressing D/UW-3 strain aaxBC genes showed significantly enhanced uptake
